Test results published in patent publication US10363239B2, “Method for inhibiting growth of cancer cells” (Pain Therapeutics, Inc., priority 2013, dated 2019).
Like-named read-outs stand apart in the source and are kept apart here.

Tests used:
[1] = system: glioblastoma cells (U-87 MG); test: [3H]glucose uptake; type: cell-based, human; settings: C0105 0.1-5 nM, other compounds 1 and 5 nM, twice daily for 4 days
Protocol: (§1) FIG. 1A through FIG. 1M illustrate the effects of various FLNA-binding compounds on glucose uptake in glioblastoma, melanoma, breast and pancreatic cancer cell lines, along with appropriate non-cancerous primary cell controls. Cells were grown in the absence or presence of 0.1-5 nM indicated compounds for 4 days. Following brief washes with PBS, cells were serum-deprived for 4 hours and then incubated in oxygenated Kreb's Ringer containing 0.1 μCi [^3H]glucose for 2 hours under constant oxygenation. The reaction was terminated by removal of the incubation medium, and cells were washed and scraped off to determine the amounts of [^3H]glucose in cells by scintillation spectrometry. […] N=5-6. […] . […] . To determine the effect of Compound C0105 on glucose utilization, the cancer and primary normal cells were plated extremely thinly (10%). Once cells attached, Compound C0105 was added at 0.1, 0.5, 1 or 5 nM in the medium twice daily (6 hours apart) for 4 days. The cells were serum-deprived (glucose deprived) for 2 hours. Cells were then rinsed with 1 ml PBS and glucose uptake was assessed by contacting the cells with [^3H]glucose (0.01 uCi/l ml) in Kreb's Ringer for 2 hours. Cells were then rinsed with 1 ml PBS 3 times, scraped off and their glucose content counted by liquid scintillation spectrophotometry.
(§2) Both glioblastoma and melanoma cells were plated extremely thinly. Once cells attached, Compound C0105 was added at 0.1, 0.5, 1 and 5 nM, whereas the other compounds were present at 1 and 5 nM in the medium twice daily (6 hours apart) for 4 days. The cells were serum-deprived (glucose deprived) for 2 hours. Cells were then rinsed with 1 ml PBS and glucose uptake was assessed by contacting the cells with [3H]glucose (0.01 uCi/l ml) of Kreb's Ringer for 2 hours. Cells were then rinsed with 1 ml PBS 3 times, scraped off and their glucose contents counted by liquid scintillation spectrophotometry.

[2] = system: melanoma cells (A2058); test: [3H]glucose uptake; type: cell-based, human; settings: C0105 0.1-5 nM, other compounds 1 and 5 nM, twice daily for 4 days
Protocol: as §1, §2

[3] = system: primary lung fibroblasts; test: [3H]glucose uptake; type: cell-based, human; settings: C0105 0.1-5 nM, other compounds 1 or 5 nM; 4 days
Protocol: as §1, §2

[4] = system: mu opiate receptor (MOR); test: MOR agonist activity using [35S]GTPγS binding assay in striatal membranes; type: biochemical; settings: for MOR agonist activity ([35S]GTPγS binding), FLNA-Binding Compound as Agonist 1 μM + BFNA: 1 μM compound + 1 μM β-funaltrexamine
Method in brief: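 Striatal membranes (200 μg) were preincubated 5 min at 30 °C in HEPES pH 7.5 with 100 mM NaCl, 1 mM MgCl2 and 0.5 nM [35S]GTPγS, then 5 min more with 0.1–10 μM compound. Gαo was immunoprecipitated and bound radioactivity counted by scintillation.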

[5] = system: non-small cell lung cancer cell lines; test: Glucose utilization; type: cell-based, human; settings: data not shown
Protocol: To determine the effect of Compound C0105 on glucose utilization, the cancer and primary normal cells were plated extremely thinly (10%). Once cells attached, Compound C0105 was added at 0.1, 0.5, 1 or 5 nM in the medium twice daily (6 hours apart) for 4 days. The cells were serum-deprived (glucose deprived) for 2 hours. Cells were then rinsed with 1 ml PBS and glucose uptake was assessed by contacting the cells with [^3H]glucose (0.01 uCi/l ml) in Kreb's Ringer for 2 hours. Cells were then rinsed with 1 ml PBS 3 times, scraped off and their glucose content counted by liquid scintillation spectrophotometry.
. Primary lung fibroblast cells were used as control, non-cancerous cells to illustrate the difference in effects observed (FIG. 1C, FIGS. 1H-1I).

[6] = molecular target: FLNA pentapeptide of SEQ ID NO: 1 (Bn-VAKGL) (Homo sapiens, UniProt P21333); test: FITC-NLX-based FLNA screening assay (inhibition of FITC-naloxone binding to Bn-VAKGL on streptavidin plates); settings: 10 nM FITC-NLX
[7] = system: more than 65 receptors; test: Standard binding assay on more than 65 receptors; settings: 10 μM concentration
[8] = 0.1 μM compound relative to DAMGO
[9] = 1 μM compound + BFNA relative to DAMGO + BFNA
[10] = 1 μM compound relative to DAMGO
[11] = read-out: Percent Binding Inhibition, FLNA-binding compound 0.01 μM
[12] = read-out: Percent Binding Inhibition, FLNA-binding compound 0.1 μM
[13] = read-out: Percent Binding Inhibition, FLNA-binding compound 1 μM
[14] = FLNA-binding compound 0.01 μM, read-out: Percent Binding Inhibition
[15] = FLNA-binding compound 0.1 μM, read-out: Percent Binding Inhibition
[16] = FLNA-binding compound 1 μM, read-out: Percent Binding Inhibition
[17] = Series C-2, 0.1 μM compound, relative to DAMGO
[18] = Series C-2, 0.1 μM compound, [35S]GTPγS binding to Gαo, striatal membranes
[19] = Series C-2, 1 μM compound + 1 μM β-FNA
[20] = Series C-2, 1 μM compound + β-FNA, relative to DAMGO + BFNA
[21] = Series C-2, 1 μM compound, relative to DAMGO
[22] = Series C-2, 1 μM compound, [35S]GTPγS binding to Gαo, striatal membranes

SMILES: COc1c2c(cc3c1C(CC(=O)Cc1ccccc1F)[N+](C)(C)CC3)OCO2 (centres unmarked) [Compound B0055]
- Glucose utilization [1]: decreased the elevated glucose utilization
- Glucose utilization [2]: decreased the elevated glucose utilization
- Glucose uptake / glucose content [3]: no significant inhibition in glucose content
- % DAMGO (0.1 μM) ([4]; Series B, 0.1 μM compound, relative to DAMGO): 91.8%
- MOR agonist activity, percent [35S]GTPγS binding at the stated compound concentration ([4]; Series B, 0.1 μM compound, [35S]GTPγS binding to Gαo, striatal membranes): 162.1%
- MOR agonist activity, percent [35S]GTPγS binding at the stated compound concentration ([4]; Series B, 1 μM compound + 1 μM β-FNA): 117.5%
- % DAMGO + BFNA ([4]; Series B, 1 μM compound + β-FNA, relative to DAMGO + BFNA): 446.8%
- % DAMGO (1 μM) ([4]; Series B, 1 μM compound, relative to DAMGO): 133.1%
- MOR agonist activity, percent [35S]GTPγS binding at the stated compound concentration ([4]; Series B, 1 μM compound, [35S]GTPγS binding to Gαo, striatal membranes): 338.5%
- Glucose utilization [5]: decreased the elevated glucose utilization

SMILES: COc1ccc(OCC(O)CN2CCc3ccccc3C2)cc1 (centres unmarked) [Compound A0053]
- Glucose utilization [1]: decreased the elevated glucose utilization
- Glucose utilization [2]: decreased the elevated glucose utilization
- Glucose uptake / glucose content [3]: no significant inhibition in glucose content
- MOR agonist activity ([35S]GTPγS binding), FLNA-Binding Compound as Agonist 0.1 μM ([4]; 0.1 μM compound): 78.5%
- % DAMGO (0.1 μM) [4, 8]: 46.5%
- MOR agonist activity ([35S]GTPγS binding), FLNA-Binding Compound as Agonist 1 μM ([4]; 1 μM compound): 118.2%
- MOR agonist activity ([35S]GTPγS binding), FLNA-Binding Compound as Agonist 1 μM + BFNA [4]: 15.1%
- % DAMGO + BFNA [4, 9]: 46.2%
- % DAMGO (1 μM) [4, 10]: 47.5%
- inhibition at 0.01 µM [6, 11]: 34.8%
- inhibition at 0.1 µM [6, 12]: 40%
- inhibition at 1 µM [6, 13]: 46.9%
- Glucose utilization [5]: decreased the elevated glucose utilization

SMILES: CC1CCC(C(C)C)C(OCC(CN2CC(C)OC(C)C2)NCc2ccccc2)C1 (centres unmarked) [Compound A0033]
- Glucose utilization [1]: decreased the elevated glucose utilization
- Glucose utilization [2]: decreased the elevated glucose utilization
- Glucose uptake / glucose content [3]: no significant inhibition in glucose content
- MOR agonist activity ([35S]GTPγS binding), FLNA-Binding Compound as Agonist 0.1 μM ([4]; 0.1 μM compound): 155.8%
- % DAMGO (0.1 μM) [4, 8]: 79.4%
- MOR agonist activity ([35S]GTPγS binding), FLNA-Binding Compound as Agonist 1 μM ([4]; 1 μM compound): 254.6%
- MOR agonist activity ([35S]GTPγS binding), FLNA-Binding Compound as Agonist 1 μM + BFNA [4]: 118.2%
- % DAMGO + BFNA [4, 9]: 159.9%
- % DAMGO (1 μM) [4, 10]: 92.2%
- inhibition at 0.01 µM [6, 14]: 46.4%
- inhibition at 0.1 µM [6, 15]: 51.8%
- inhibition at 1 µM [6, 16]: 56.5%
- Glucose utilization [5]: decreased the elevated glucose utilization

SMILES: O=C1CNC2(CCN(CC3CC3)CC2)N1Cc1ccccc1 [Compound C0124M]
- Glucose utilization [1]: decreased the elevated glucose utilization
- Glucose utilization [2]: decreased the elevated glucose utilization
- Glucose uptake / glucose content [3]: no significant inhibition in glucose content
- inhibition at 0.01 µM [6, 14]: 47.7%
- inhibition at 0.1 µM [6, 15]: 52.2%
- inhibition at 1 µM [6, 16]: 58.7%
- Glucose utilization [5]: decreased the elevated glucose utilization

SMILES: O=C1CN(Cc2ccccc2)C2(CCN(S(=O)(=O)c3cc(Cl)c(O)c(Cl)c3)CC2)N1 [Compound C0139M]
- Glucose utilization [1]: decreased the elevated glucose utilization
- Glucose utilization [2]: decreased the elevated glucose utilization
- Glucose uptake / glucose content [3]: no significant inhibition in glucose content
- % DAMGO (0.1 μM) ([4]; Series C-1, 0.1 μM compound, relative to DAMGO): 106.2%
- % DAMGO + BFNA ([4]; Series C-1, 1 μM compound + β-FNA, relative to DAMGO + BFNA): 129.8%
- % DAMGO (1 μM) ([4]; Series C-1, 1 μM compound, relative to DAMGO): 102.2%
- Binding to any of more than 65 assayed receptors [7]: no significant binding
- Glucose utilization [5]: decreased the elevated glucose utilization

SMILES: Cc1ccc(S(=O)(=O)N2CCOC23CCN(CC2CC2)CC3)cc1 [Compound C0134M]
- Glucose utilization [1]: decreased the elevated glucose utilization
- Glucose utilization [2]: decreased the elevated glucose utilization
- Glucose uptake / glucose content [3]: no significant inhibition in glucose content
- MOR agonist activity, FLNA-Binding Compound as Agonist 0.1 μM (preliminary study) ([4]; 0.1 μM, average of two runs): 150.7%
- MOR agonist activity, FLNA-Binding Compound as Agonist 1 μM + βNFA (preliminary study) ([4]; 1 μM + βNFA, average of two runs): 53.2%
- MOR agonist activity, FLNA-Binding Compound as Agonist 1 μM (preliminary study) ([4]; 1 μM, average of two runs): 224.0%
- % DAMGO (0.1 μM) [4, 17]: 94.6%
- MOR agonist activity, percent [35S]GTPγS binding at the stated compound concentration [4, 18]: 158.5%
- MOR agonist activity, percent [35S]GTPγS binding at the stated compound concentration [4, 19]: 46.6%
- % DAMGO + BFNA [4, 20]: 98.1%
- % DAMGO (1 μM) [4, 21]: 93.3%
- MOR agonist activity, percent [35S]GTPγS binding at the stated compound concentration [4, 22]: 207.3%
- inhibition at 0.01 µM [6, 14]: 55.7%
- inhibition at 0.1 µM [6, 15]: 60.5%
- inhibition at 1 µM [6, 16]: 61.9%
- Glucose utilization [5]: decreased the elevated glucose utilization

SMILES: CC(=O)c1ccc(S(=O)(=O)N2CC(CN(C)C)OC23CCN(C)CC3)cc1 (centres unmarked) [Compound C0108M]
- Glucose utilization [1]: decreased the elevated glucose utilization
- Glucose utilization [2]: decreased the elevated glucose utilization
- Glucose uptake / glucose content [3]: no significant inhibition in glucose content
- % DAMGO (0.1 μM) [4, 17]: 108.7%
- MOR agonist activity, percent [35S]GTPγS binding at the stated compound concentration [4, 18]: 205.6%
- MOR agonist activity, percent [35S]GTPγS binding at the stated compound concentration [4, 19]: 76.9%
- % DAMGO + BFNA [4, 20]: 158.6%
- % DAMGO (1 μM) [4, 21]: 104.1%
- MOR agonist activity, percent [35S]GTPγS binding at the stated compound concentration [4, 22]: 258.5%
- inhibition at 0.01 µM [6, 11]: 54.6%
- inhibition at 0.1 µM [6, 12]: 61.4%
- inhibition at 1 µM [6, 13]: 68.7%
- Glucose utilization [5]: decreased the elevated glucose utilization
